Tests used:
Assay type in all cases: functional
Design in all cases: scale not given here
Schistosoma mansoni [1] = tested on: Schistosoma mansoni
Schistosoma mansoni [2] = tested on: Schistosoma mansoni; remark: listed apart in the source
Schistosoma mansoni [3] = tested on: Schistosoma mansoni; remark: listed apart in the source

| Structure (SMILES) | Toxicity (Schistosoma mansoni [1]) | Toxicity (Schistosoma mansoni [2]) | Toxicity (Schistosoma mansoni [3]) |
| --- | --- | --- | --- |
| COc1ccc(CCNC(=O)c2cc(S(=O)(=O)N3CC(C)CC(C)C3)ccc2Sc2ccc(F)cc2)cc1OC (stereo not given) | 4 | 4 | 4 |
| O=C(NCCCN1CCC(N2CCCCC2)CC1)C1=Cc2cc(Br)ccc2OC1 | 4 | 1 | 0 |
| Cc1ccc(N2C3c4ccccc4N(S(=O)(=O)c4ccc(C)cc4)C2c2ccccc2N3S(=O)(=O)c2ccc(C)cc2)cc1 | 0 | 0 | 0 |
| COCCn1c(C)nc2ccccc2c1=O | 0 | 0 | 0 |
| CC1CN(C(=O)c2sc3ccccc3c2Cl)CC(C)O1 (stereo not given) | 0 | 0 | 0 |
| COc1ccc(C(=O)NC(c2ccc(Cl)cc2Cl)c2cc(Cl)c3cccnc3c2O)cc1 (stereo not given) | 0 | 0 | 0 |
| CC(=O)NCCc1nc2ccccc2n1Cc1ccc(C(C)C)cc1 | 0 | 0 | 0 |
| Cc1ccc(-c2nc3ccccc3o2)cc1NCc1cc(Cc2ccccc2)ccc1O | 0 | 0 | 0 |
| CC1=C(CC(=O)c2cccc([N+](=O)[O-])c2)C(=O)c2ccccc2C1=O | 2 | 2 | 0 |
| Oc1ccc(C(=C(Cl)Cl)c2ccc(O)cc2)cc1 | 0 | 0 | 0 |
| Cc1cc(NCCN2CCCCC2)c2ccc3ccccc3c2n1 | 4 | 4 | 4 |
| COc1ccc2c(c1)C1(Nc3ccccc3-c3nc4ccccc4n31)C(=O)N2 (stereo not given) | 0 | 0 | 0 |
| CC1CC2=C(CC1CNCCCN(C)C)C(C)(C)CCC2 (stereo not given) | 4 | 4 | 4 |
| COc1cccc(-c2nn(C)c3sc(C(=O)NCCN4CCN(c5ccccc5F)CC4)cc23)c1 | 3 | 0 | 0 |
| O=C(NCC1Cc2cccc(-c3ccncc3)c2O1)c1csc2c1CCCC2 (stereo not given) | 0 | 0 | 0 |
| CCN1CCN(c2c(C(=O)c3ccccc3)cnc3cc(OC)c(OC)cc23)CC1 | 0 | 0 | 0 |
| CCCCCCc1cc2cc(-c3nc4ccccc4[nH]3)c(=Nc3ccccc3C)oc2cc1O | 3 | 3 | 0 |
| O=C1c2ccc3c4c(ccc(c24)C(=O)N1CCCCO)C(=O)N(CCCCO)C3=O | 4 | 0 | 0 |
| CCOc1cccc2sc(N(Cc3cccnc3)C(=O)C3CCCCC3)nc12 | 0 | 0 | 0 |
| O=C(NC1CCCC1)c1ccc(N2CCC(NCc3cccc(C(F)(F)F)c3)CC2)cc1 | 1 | 0 | 0 |
| CCN(CC)CCCNc1ccnc2cc3ccccc3cc12 | 2 | 2 | 2 |
| CC1CCCCN1CCCNC(=O)c1ccc2c(c1)sc1nc(-c3ccc(F)cc3)cn12 (stereo not given) | 1 | 0 | 2 |
| O=C(Nc1ccc(Cl)cc1)N1CCN(c2ccc3nncn3n2)CC1 | 0 | 0 | 0 |
| O=C(CSc1ccc2nnc(-c3cccc(F)c3)n2n1)Nc1ccc2c(c1)OCO2 | 0 | 0 | 0 |

| Structure (SMILES) | Toxicity (Schistosoma mansoni [1]) | Toxicity (Schistosoma mansoni [2]) | Toxicity (Schistosoma mansoni [3]) |
| --- | --- | --- | --- |
| CCOc1cc(Cl)c(C(C)NC(=O)c2ccccc2)cc1OCC (stereo not given) | 0 | 0 | 0 |
| Cc1cc(C)c2c(c1)OCN(Cc1ccccc1Cl)C2 | 2 | 0 | 0 |
| CCOC(=O)C1=C(c2ccccc2)N=c2sc(=Cc3cc(C)n(-c4ccc(F)cc4)c3C)c(=O)n2C1c1cccc(OC)c1OC (stereo not given) | 0 | 0 | 0 |
| Cc1cc(NC(=O)C2c3ccccc3C(=O)N(CC(C)C)C2c2cccs2)no1 (stereo not given) | 0 | 0 | 0 |
| Cl.Cn1c(=O)n(C)c2cc(CNCCNc3ccnc4cc(Cl)ccc34)ccc21 | 1 | 1 | 0 |
| FC(F)(F)c1ccc(Nc2nnnc3ccccc23)cc1 | 0 | 0 | 1 |
| COc1cc(-c2nc(-c3ccccc3)c(-c3ccccc3)[nH]2)cc(OC)c1O | 0 | 0 | 0 |
| O=C(O)C(=O)O.Oc1ccccc1CN1CCN(C(c2ccccc2)c2ccccc2)CC1 | 0 | 0 | 0 |
| COc1ccc2c(=O)cc(C(Cl)(Cl)Cl)oc2c1 | 3 | 0 | 0 |
| Cc1cc(N2CCN(C3CCCC3)CC2)n2c(nc3ccccc32)c1C#N | 0 | 0 | 0 |
| CN1CCN(c2nc(Nc3ccc(O)cc3)nc3ccccc23)CC1.Cl | 0 | 0 | 0 |
| CCN1CCN(Cc2ccc(NC(=O)c3cc4ccc5cccnc5c4[nH]3)cc2)CC1 | 0 | 1 | 0 |
| COc1ccccc1CNC(=O)C1c2ccccc2C(=O)N(CC(C)C)C1c1cccs1 (stereo not given) | 0 | 0 | 0 |
| Cc1ccc(OCCCCCCNCCO)c(C)c1 | 0 | 0 | 0 |
| OC1=C2C(=Nc3ccccc3SC2c2ccc(Br)cc2)c2ccccc21 (stereo not given) | 0 | 0 | 1 |
| CCOc1cc2c(cc1OCC)C(c1cc(Cl)c(O)c(OCC)c1)NCC2 (stereo not given) | 0 | 0 | 0 |
| Cc1cc(Nc2ccc3ccccc3c2)n2ncnc2n1 | 1 | 1 | 0 |
| CCCCc1c(C)nc2c(OC)cccc2c1O | 0 | 0 | 0 |
| Nc1nc(Nc2cccc(F)c2)nc2ccccc12 | 0 | 0 | 0 |
| COc1ccc(Br)cc1C1Nc2ccc3ccccc3c2C2=C1C(=O)CC(c1ccccc1)C2 (stereo not given) | 0 | 0 | 0 |
| CC(=O)Nc1nnc(SCc2c(C)cc(C(C)(C)C)cc2C)s1 | 0 | 0 | 0 |
| O=C(NC1CCN(Cc2ccccc2)CC1)c1cc(-c2cccnc2)nc2ccc(Cl)cc12 | 0 | 0 | 0 |
| CCCCc1c(CCC)c(=N)c2ccccc2n1C.I | 0 | 0 | 0 |
| COc1ccc2nc(N)nc(C)c2c1 | 4 | 0 | 0 |

| Structure (SMILES) | Toxicity (Schistosoma mansoni [1]) | Toxicity (Schistosoma mansoni [2]) | Toxicity (Schistosoma mansoni [3]) |
| --- | --- | --- | --- |
| Oc1ccc(Br)cc1CN1CCN(Cc2ccc(Cl)cc2)CC1 | 0 | 0 | 1 |
| CCOc1c(Cl)cc(CNC(C)C(O)c2ccccc2)cc1OC (stereo not given) | 0 | 0 | 0 |
| OC(CNCC1CCCO1)Cn1c2ccc(Cl)cc2c2cc(Cl)ccc21 (stereo not given) | 0 | 0 | 0 |
| c1ccc(/C2=N/c3ccccc3/N=C(/c3ccccc3)c3ccccc32)cc1 | 1 | 1 | 1 |
| CN(C)c1ccc(N=Cc2ccc(N3CCOCC3)cc2)cc1 | 0 | 0 | 0 |
| COc1cccc(NC(=O)Cn2c(C)c(C#N)c3ccccc32)c1 | 0 | 0 | 0 |
| CCn1c(SCC(=O)Nc2cc(C(F)(F)F)ccc2Cl)nc2ccccc2c1=O | 0 | 0 | 0 |
| COc1cccc(NC(=O)[C@H](C(C)C)n2c(=O)[nH]c3ccccc3c2=O)c1 | 0 | 0 | 0 |
| COc1cccc(Nc2nc(N)c3ccccc3n2)c1.Cl | 0 | 0 | 0 |
| COc1ccc(Nc2cc(C)nc(NCc3ccccc3)n2)cc1 | 3 | 3 | 2 |
| O=C1CC(O)(C(F)(F)C(F)(F)F)Oc2ccccc21 (stereo not given) | 1 | 0 | 0 |
| O=c1cc(NC2CCN(CCCc3ccccc3)CC2)c2cc(Cl)ccc2o1 | 2 | 1 | 2 |
| COc1ccc(CCn2c(=N)c(C(=O)NCc3cccnc3)cc3c(=O)n4cccc(C)c4nc32)cc1 | 4 | 0 | 2 |
| CCOC(=O)c1cn(CC)c2cc(N3CCCCC3)c(F)cc2c1=O | 0 | 0 | 0 |
| CCOc1ccc(N2C(N)=NC(N)=NC2(C)C)cc1.Cl | 0 | 0 | 0 |
| CCOC(=O)c1cnc2c(C)cccc2c1Nc1ccc(C(C)=O)cc1 | 0 | 0 | 0 |
| CCN(CC)CCNc1ccnc2cc3ccccc3cc12.O=P(O)(O)O | 3 | 3 | 2 |
| O=C(NNc1cc(N2CCCC2)nc(N2CCCC2)n1)c1ccccc1 | 4 | 0 | 1 |
| Fc1ccc2[nH]c3c(NCCCN4CCOCC4)ncnc3c2c1 | 1 | 0 | 0 |
| c1ccc2c(NCCc3c[nH]c4ccccc34)c3ccccc3nc2c1 | 4 | 4 | 3 |
| CCC(c1ccccc1)c1nn2c(-c3cccs3)nnc2s1 (stereo not given) | 0 | 0 | 0 |
| OCCNc1nc(Nc2ccc(Cl)c(Cl)c2)nc2ccccc12 | 4 | 0 | 2 |

Reference: ChEMBL document CHEMBL2363022, “Malaria Box Schistosomiasis Screening Data” (2013)
